In brackets after ≈: the same amount, converted by molar mass. Read-outs that look alike come from different tables or passages of the source.
How the values were obtained:
[1] = system: human leukemia HL-60 cell line; conditions: cited from earlier work
[2] = system: Enterococcus faecalis; test: Antimicrobial broth microdilution, MIC; type: cell-based; conditions: for MIC: read-out: Minimum inhibitory concentration
From the text: (§1) Stilbene production has been correlated with the resistance of grape leaves to fungal infection.

[3] = system: Micrococcus luteus; test: Antimicrobial broth microdilution, MIC; type: cell-based; conditions: read-out: Minimum inhibitory concentration
From the text: as §1

[4] = system: Streptococcus pneumoniae; test: Antimicrobial broth microdilution, MIC; type: cell-based; conditions: read-out: Minimum inhibitory concentration
From the text: as §1

[5] = system: Stenotrophomonas maltophilia; test: Antimicrobial broth microdilution, MIC; type: cell-based; conditions: read-out: Minimum inhibitory concentration
From the text: as §1

[6] = system: Staphylococcus aureus; test: Antimicrobial broth microdilution, MIC; type: cell-based; conditions: read-out: Minimum inhibitory concentration
From the text: as §1

[7] = system: Cryptococcus neoformans; test: Antimicrobial broth microdilution, MIC; type: cell-based; conditions: read-out: Minimum inhibitory concentration
From the text: as §1

[8] = system: Escherichla coli; test: Antimicrobial broth microdilution, MIC; type: cell-based; conditions: read-out: Minimum inhibitory concentration
From the text: as §1

[9] = system: Enterobacter cloacae; test: Antimicrobial broth microdilution, MIC; type: cell-based; conditions: read-out: Minimum inhibitory concentration
From the text: as §1

[10] = system: Candida albicans; test: Antimicrobial broth microdilution, MIC; type: cell-based; conditions: read-out: Minimum inhibitory concentration
From the text: as §1

[11] = system: Neisseria gonorrhoeae; test: Antimicrobial broth microdilution, MIC; type: cell-based
From the text: as §1

[12] = system: BXPC-3; test: Cytotoxicity, pancreas-a BXPC-3; type: cell-based, human
[13] = system: KM201.2; test: Cytotoxicity, colon KM201.2; type: cell-based, human; conditions: KM201.2
[14] = system: tubulin; test: Inhibition of [3H]colchicine binding to tubulin; conditions: for Inhibition of colchicine binding % Inhibition, 2 μM inhibitor / Inhibition of colchicine binding % Inhibition, 5 μM inhibitor: tubulin 1.0 μM, [3H]colchicine 5.0 μM, 10 min at 37° C.
Description: (§2) Extent of assembly after 20 min at 30° C. was the parameter measured. The colchicine binding assay was performed as earlier reported.^27 The tubulin concentration was 1.0 μM, the [3H] colchicine concentration was 5.0 μM, and the potential inhibitor concentrations were as indicated. Binding of colchicine was measured following a 10 min incubation at 37° C.

[15] = system: NCI-H460; test: Cytotoxicity, lung-NSC NCI-H460; type: cell-based, human
[16] = system: tubulin; test: Inhibition of tubulin polymerization; type: biochemical; conditions: for IC50: tubulin 10 μM, extent of assembly after 20 min at 30° C., read-out: Inhibition of tubulin Polymerization IC50 (μM) ± SD; for Inhibition of tubulin assembly, in words: direct comparison with 2a and 2c
Description: as §2

[17] = system: DU-145; test: Cytotoxicity, prostate DU-145; type: cell-based, human
[18] = system: SF-268; test: Cytotoxicity, CNS SF-268; type: cell-based, human
[19] = system: murine CaNT adenocarcinoma; conditions: six hours after single i.p. injection, 100 mg/kg; cited from earlier work
[20] = system: bacteria and fungi; test: Antimicrobial evaluation, summary; type: cell-based
From the text: as §1

[21] = system: MCF-7; test: Cytotoxicity, breast MCF-7; type: cell-based, human; conditions: Homo sapiens, MCF7
[22] = system: P-388 and human tumor cell lines; test: Cytotoxicity, summary over P-388 and human tumor cell lines; type: cell-based
[23] = Neisseria gonorrhoeae; read-out: Minimum inhibitory concentration

For `Oc1ccc(/C=C/c2cc(O)cc(O)c2)cc1` [Compound 1, 3,4′,5-trihydroxy-trans-stilbene, reference compound], the “Apoptosis and Bcl-2 expression” value [1] is listed as “induce apoptosis and decrease expression of Bcl-2”, the MIC ([2]; first line (r12)) is listed as > 64 mg/L and the MIC ([2]; second line (r15)) is listed as > 64 mg/L. The MIC [3] was > 64 mg/L, the MIC [4] was > 64 mg/L and the MIC [5] was > 64 mg/L. For the same compound, the MIC [6] was > 64 mg/L, the MIC [7] was > 64 mg/L and the MIC ([8]; Escherichla coli) was > 64 mg/L. For the same compound, the MIC [9] was > 64 mg/L, the MIC [10] was > 64 mg/L and the MIC [11, 23] was 16 to 32 mg/L (≈ 70.1 to 140 µM). For the same compound, the “Activity against Neisseria gonorrhoeae, in words” value ([11]; broth microdilution assays) was “demonstrated”.
With `COc1ccc(/C=C\c2cc(OC)c(OC)c(OC)c2)cc1O` [Compound 2a, combretastatin A-4, reference compound] the “Pancreas-a BXPC-3 GI50” value [12] was 0.39 mg/L, the “Colon KM201.2 GI50” value [13] was 0.34 mg/L and the “Inhibition of colchicine binding % Inhibition, 2 μM inhibitor” value [14] was 91%. For the same compound, the “Lung-NSC NCI-H460 GI50” value [15] was 0.0006 mg/L, the IC50 [16] was 2 ± 0.2 µM and the “Prostate DU-145 GI50” value [17] was 0.0008 mg/L. The “CNS SF-268 GI50” value [18] was >0.01 mg/L.
For `COc1ccc(/C=C\c2cc(OC)c(OC)c(OC)c2)cc1OP(=O)([O-])[O-].[Na+].[Na+]` [Compound 2b, combretastatin A-4 sodium phosphate prodrug], the “Tumor vascular function shutdown” value [19] is given as “rapid, irreversible and extensive”.
For `COc1ccc(C=Cc2cc(OC)cc(OC)c2)cc1` [Compound 4a, 3,4′,5-trimethoxystilbene], the “Pancreas-a BXPC-3 GI50” value [12] was 0.0034 mg/L, the MIC [2] was > 64 mg/L and the Minimum inhibitory concentration ([2]; second line (r15)) was “* (no inhibition at 64 μg/ml)”. For the same compound, the MIC [3] was > 64 mg/L, the MIC [4] was > 64 mg/L and the MIC [5] was > 64 mg/L. For the same compound, the MIC [6] was > 64 mg/L, the MIC [7] was > 64 mg/L and the MIC [8] was > 64 mg/L. For the same compound, the MIC [9] was > 64 mg/L, the MIC [10] was > 64 mg/L and the MIC ([11]; Neisseria gonorrhoeae, read-out: Minimum inhibitory concentration) was > 64 mg/L. The “Inhibition of colchicine binding, in words” value [14] was “essentially equivalent to 2a”, the “Inhibition of colchicine binding % Inhibition, 2 μM inhibitor” value [14] was 88 ± 1% and the “Inhibition of colchicine binding % Inhibition, 5 μM inhibitor” value [14] was 95 ± 1%. For the same compound, the “Lung-NSC NCI-H460 GI50” value [15] was 0.0028 mg/L, the “Inhibition of tubulin assembly, in words” value [16] was “more inhibitory than 2a” and the IC50 [16] was 1.8 ± 0.3 µM. For the same compound, the “Prostate DU-145 GI50” value [17] was 0.0054 mg/L and the “CNS SF-268 GI50” value [18] was 0.0044 mg/L.
For `COc1cc(C=Cc2ccc(O)cc2)cc(OC)c1` [Compound 14c, 3,5-dimethoxy-4′-hydroxy-stilbene], the GI50 ([12]; Homo sapiens, BXPC-3, BXPC-3) was 12.6 mg/L (≈ 49.2 µM), the “Antimicrobial activity, in words” value [20] was “most active of the stilbenes and benzophenones tested” and the GI50 [21] was 3 mg/L (≈ 11.7 µM). The GI50 ([13]; Homo sapiens, read-out: Colon KM201.2 GI50) was 11.9 mg/L (≈ 46.4 µM), the “Cytotoxicity against cancer cell lines, comparison in words” value [22] was “comparable to that of resveratrol” and the MIC ([2]; first line (r12)) was 32 to 64 mg/L (≈ 125 to 250 µM). For the same compound, the MIC ([2]; second line (r15)) was > 64 mg/L, the MIC [3] was 8 mg/L (≈ 31.2 µM) and the MIC [4] was 16 mg/L (≈ 62.4 µM). For the same compound, the MIC [5] was > 64 mg/L, the MIC [6] was 32 mg/L (≈ 125 µM) and the MIC [7] was 16 mg/L (≈ 62.4 µM). For the same compound, the MIC ([8]; Escherichla coli) was > 64 mg/L, the MIC [9] was > 64 mg/L and the MIC [10] was 64 mg/L (≈ 250 µM). For the same compound, the MIC [11, 23] was 8 mg/L (≈ 31.2 µM), the GI50 ([15]; Homo sapiens, NCI-H460, NCI-H460, read-out: Lung-NSC NCI-H460 GI50) was 2.8 mg/L (≈ 10.9 µM) and the “Fold less active than 4a as inhibitor of tubulin assembly” value ([16]; relative to 4a) was 16 fold. It also gave an IC50 [16] of 29 ± 9 µM, a GI50 ([17]; Homo sapiens, DU-145, DU-145) of 2.3 mg/L (≈ 8.97 µM) and a GI50 ([18]; Homo sapiens, SF-268, SF-268, read-out: CNS SF-268 GI50) of 2.2 mg/L (≈ 8.58 µM).
For `COc1ccc(C(=O)c2cc(OC)cc(OC)c2)cc1` [Compound 16a, 3,4′,5-trimethoxybenzophenone], the GI50 [21] was 21.7 mg/L (≈ 79.7 µM), the “Cytotoxicity against cancer cell lines, comparison in words” value [22] was “superior in activity to resveratrol (1)” and the “Fold less active (cytotoxicity) than compound 4a” value ([22]; relative to 4a) was 10-100 fold. For the same compound, the MIC ([2]; first line (r12)) was > 64 mg/L, the MIC ([2]; second line (r15)) was > 64 mg/L and the MIC [3] was > 64 mg/L. For the same compound, the MIC [4] was > 64 mg/L, the MIC [5] was > 64 mg/L and the MIC [6] was > 64 mg/L. The MIC [7] was > 64 mg/L, the MIC ([8]; Escherichla coli) was > 64 mg/L and the MIC [9] was > 64 mg/L. The MIC [10] was > 64 mg/L, the MIC [11, 23] was 32 mg/L (≈ 118 µM) and the “Inhibition of colchicine binding, in words” value [14] was “least activity in both assays”. For the same compound, the “Inhibition of colchicine binding % Inhibition, 2 μM inhibitor” value [14] was 47 ± 5%, the “Inhibition of colchicine binding % Inhibition, 5 μM inhibitor” value [14] was 69 ± 0.3% and the melting point was 90.3 to 91.6 °C. For the same compound, the “Inhibition of tubulin assembly, in words” value [16] was “somewhat less potent than 2c” and the IC50 [16] was 2.6 ± 0.3 µM.
